Converted amounts (≈) assume the structure as drawn. Where two headings read alike, the source gives them in different places.
Legend:
[1] = system: Escherichia coli ATCC 47076; experiment: Antibacterial MIC, microdilution susceptibility test (CLSI); assay type: cell-based
Excerpt: (§1) The synthesized linezolid conjugates (3a–k, 5a–f, 7a–c, 9a–c, 11a–f, 13, and 15) were subjected for antimicrobial properties determination against Gram-positive (Staphylococcus aureus ATCC 6538, Bacillus subtilis ATCC 6633) and Gram-negative (Pseudomonas aeruginosa ATCC 15692, Escherichia coli ATCC 47076) bacteria by the standard technique.
(§2) Antibacterial properties of the synthesized compounds (3a–k, 5a–f, 7a–c, 9a–c, 11a–f, 13 and 15) were screened against Gram-positive (Staphylococcus aureus ATCC 6538, Bacillus subtilis ATCC 6633) and Gram-negative (Pseudomonas aeruginosa ATCC 15,692 and Escherichia coli ATCC 47076) bacteria utilizing the standard technique. Linezolid was used as a standard reference/drug in the current study. The tested bacterial strains were obtained from MERCIN Center, Faculty of Agriculture, Ain Shams University, Cairo, Egypt.
(§3) To determine the antibacterial activity, stock solutions of the tested compounds and standard reference were prepared with up to 100% DMSO and stored at […]. If necessary, the solutions were heated to 40–60 °C before testing to facilitate complete dissolution. Double distilled water was used in all dilutions prepared. […] A microdilution susceptibility test was used for MIC determination (Mueller–Hinton broth in 96-well plates) according to the CLSI (the Clinical and Laboratory Standards Institute, Malvern, PA, USA). The bacterial inoculum was adjusted to approximately 2.5–3 × 10^4 cells/mL in Mueller–Hinton broth and incubated in a ratio of 1:1 with the test derivatives in polystyrene 96-well flat-bottom microplates. Positive growth control (without test derivatives) and negative control (without bacteria) were included. The microplates were placed in an incubator set to 37 °C for 24 h. Absorbance was measured at 620 nm at the end of the incubation period. The cut-off level for follow-up studies was defined as a minimum of 90% inhibition of growth compared to the untreated sample. Experiments were conducted once in triplicate. For selected compounds, minimum inhibitory concentration (MIC) values were determined by dose–response experiments. Experiments were performed at least twice, in triplicate per concentration tested.

[2] = system: Staphylococcus aureus ATCC 6538; experiment: as above; assay type: cell-based; settings: Staphylococcus aureus
Excerpt: as §1, §2, §3

[3] = system: Bacillus subtilis ATCC 6633; experiment: as above; assay type: cell-based; settings: Bacillus subtilis
Excerpt: as §1, §2, §3

[4] = system: Pseudomonas aeruginosa ATCC 15692; experiment: as above; assay type: cell-based
Excerpt: as §1, §2, §3

[5] = system: Staphylococcus aureus ATCC 6538; experiment: microbe, parasite or virus in culture; set-up: species or system bacteria; Broth microdilution MIC in Mueller-Hinton broth, absorbance at 620 nm; settings: ATCC6538, 24 h, read-out: Observed MIC, uM (S. aureus)
Excerpt: as §3, with “Antibacterial properties of the synthesized compounds (3a–k, 5a–f, 7a–c, 9a–c, 11a–f, 13 and 15) were screened against Gram-positive (Staphylococcus aureus ATCC 6538, Bacillus subtilis ATCC 6633) and Gram-negative (Pseudomonas aeruginosa ATCC 15,692 and Escherichia coli ATCC 47076) bacteria utilizing the standard technique. Linezolid was used as a standard reference/drug in the current study. The tested bacterial strains were obtained from MERCIN Center, Faculty of Agriculture, Ain Shams University, Cairo, Egypt. To” for “To”

[6] = system: Bacillus subtilis ATCC 6633; experiment: microbe, parasite or virus in culture; set-up: species or system bacteria; Broth microdilution MIC in Mueller-Hinton broth, absorbance at 620 nm; settings: ATCC6633, 24 h, read-out: Observed MIC, uM (B. subtilis)
Excerpt: as §3, with “Antibacterial properties of the synthesized compounds (3a–k, 5a–f, 7a–c, 9a–c, 11a–f, 13 and 15) were screened against Gram-positive (Staphylococcus aureus ATCC 6538, Bacillus subtilis ATCC 6633) and Gram-negative (Pseudomonas aeruginosa ATCC 15,692 and Escherichia coli ATCC 47076) bacteria utilizing the standard technique. Linezolid was used as a standard reference/drug in the current study. The tested bacterial strains were obtained from MERCIN Center, Faculty of Agriculture, Ain Shams University, Cairo, Egypt. To” for “To”

[7] = ATCC47076, Mueller–Hinton broth, 37 °C, 24 h, read-out: MIC, μg/mL ± SE, E. Coli (ATCC 47076)
[8] = ATCC47076, value in parentheses, read-out: MIC (μmol), E. Coli (ATCC 47076) (converted)
[9] = ATCC6538, 24 h, Mueller–Hinton broth, 37 °C, 24 h, read-out: MIC, μg/mL ± SE, S. Aureus (ATCC 6538)
[10] = ATCC6633, 24 h, Mueller–Hinton broth, 37 °C, 24 h, read-out: MIC, μg/mL ± SE, B. Subtilis (ATCC 6633)
[11] = ATCC15692, Mueller–Hinton broth, 37 °C, 24 h, read-out: MIC, μg/mL ± SE, P. Aeruginosa (ATCC 15692)
[12] = ATCC15692, value in parentheses, read-out: MIC (μmol), P. Aeruginosa (ATCC 15692) (converted)

Compound | melting point | MIC [1, 7] | MIC [1, 8] | MIC [2, 9] | MIC [3, 10] | MIC [4, 11] | MIC [4, 12] | MIC [5] | MIC [6] | MIC ([2]; ATCC6538, as quoted in running text, read-out: MIC against S. aureus) | MIC ([3]; ATCC6633, as quoted in running text, read-out: MIC against B. subtilis)
CC(C)(C)OC(=O)NCC(=O)NC[C@H]1CN(c2ccc(N3CCOCC3)c(F)c2)C(=O)O1 [Compound 3f, Tert-butyl (S)-(2-(((3-(3-fluoro-4-morpholinophenyl)-2-oxooxazolidin-5-yl)methyl)amino)-2-oxoethyl)carbamate] | 54 to 56 °C | 32 ± 2.8 µg/mL | 70.7 µM | 32 ± 1.4 µg/mL | 8 ± 0.4 µg/mL | 32 ± 1.6 µg/mL | 70.7 µM | 70.7 µM (≈ 32 µg/mL) | 17.7 µM (≈ 8 µg/mL) |  | 
C[C@H](NC(=O)OC(C)(C)C)C(=O)NC[C@H]1CN(c2ccc(N3CCOCC3)c(F)c2)C(=O)O1 [Compound 3g, Tert-butyl ((S)-1-((((S)-3-(3-fluoro-4-morpholinophenyl)-2-oxooxazolidin-5-yl)methyl)amino)-1-oxopropan-2-yl)carbamate] | 71 to 72 °C | 32 ± 2.7 µg/mL | 68.6 µM | 32 ± 1.5 µg/mL | 32 ± 2.4 µg/mL | 32 ± 1.2 µg/mL | 68.6 µM | 68.6 µM (≈ 32 µg/mL) | 68.6 µM (≈ 32 µg/mL) |  | 
CC(C)(C)OC(=O)N[C@@H](Cc1ccccc1)C(=O)NC[C@H]1CN(c2ccc(N3CCOCC3)c(F)c2)C(=O)O1 [Compound 3j, Tert-butyl ((S)-1-((((S)-3-(3-fluoro-4-morpholinophenyl)-2-oxooxazolidin-5-yl)methyl)amino)-1-oxo-3-phenylpropan-2-yl)carbamate] | 69 to 71 °C | 32 ± 0.9 µg/mL | 59 µM | 64 ± 2.5 µg/mL | 32 ± 1.3 µg/mL | 64 ± 1.8 µg/mL | 118 µM | 118 µM (≈ 64 µg/mL) | 59 µM (≈ 32 µg/mL) |  | 
O=C(NC[C@H]1CN(c2ccc(N3CCOCC3)c(F)c2)C(=O)O1)c1ccccc1 [Compound 5a, (S)-N-((3-(3-Fluoro-4-morpholinophenyl)-2-oxooxazolidin-5-yl)methyl)benzamide] | 174 to 176 °C | 32 ± 1.6 µg/mL | 80.1 µM | 4 ± 0.2 µg/mL | 1 ± 0.1 µg/mL | 32 ± 0.8 µg/mL | 80.1 µM | 10 µM (≈ 4 µg/mL) | 2.5 µM (≈ 1 µg/mL) | 9.34 to 10 µM | 2.33 to 2.5 µM
O=C(NC[C@H]1CN(c2ccc(N3CCOCC3)c(F)c2)C(=O)O1)c1cccc([N+](=O)[O-])c1Cl [Compound 5f, (S)-2-Chloro-N-((3-(3-fluoro-4-morpholinophenyl)-2-oxooxazolidin-5-yl)methy-l)-3-nitrobenzamide] | 200 to 202 °C | 32 ± 0.6 µg/mL | 66.8 µM | 8 ± 0.2 µg/mL | 4 ± 0.3 µg/mL | 32 ± 1.4 µg/mL | 66.8 µM | 16.7 µM (≈ 8 µg/mL) | 8.35 µM (≈ 4 µg/mL) |  | 
O=C(NC[C@H]1CN(c2ccc(N3CCOCC3)c(F)c2)C(=O)O1)c1cccnc1 [Compound 7b, (S)-N-((3-(3-Fluoro-4-morpholinophenyl)-2-oxooxazolidin-5-yl)methyl)nicotinamide] | 182 to 184 °C | 32 ± 1 µg/mL | 79.9 µM | 8 ± 0.2 µg/mL | 2 ± 0.1 µg/mL | 32 ± 1.2 µg/mL | 79.9 µM | 20 µM (≈ 8 µg/mL) | 5 µM (≈ 2 µg/mL) |  | 

— article PMC8880098, “Synthesis, Antibacterial Evaluation, and Computational Studies of a Diverse Set of Linezolid Conjugates” (Pharmaceuticals, 2022)
